In article PMC4356558, “Prediction of Chemical Respiratory Sensitizers Using GARD, a Novel In Vitro Assay Based on a Genomic Biomarker Signature” (PLoS ONE, 2015):
Converted amounts (≈) assume the structure as drawn. Like-named read-outs stand apart in the source and are kept apart here. One block for each compound: values may come before it.

What was measured:
[1] = tested on: GRPS genomic biomarker signature (389 transcripts) in MUTZ-3 cells; test: GARD assay with GARD Respiratory Prediction Signature (GRPS), SVM classification of respiratory sensitizers
Description: (§1) The human acute myelomonocytic leukemia cell line MUTZ-3[68, 69] was obtained from Leibniz-Institut DSMZ-Deutsche Sammlung von Mikroorganismen und Zellkulturen (DSMZ, Braunschweig, Germany). Maintenance of cells, chemical stimulation of MUTZ-3 and all subsequent isolation of mRNA and preparation of cDNA were performed as previously described. In short, a phenotypic control of MUTZ-3 was performed using flow cytometry prior to chemical stimulation to ensure cells were in an immature state. The following FITC-conjugated mouse monoclonal antibodies (mAbs) were used: CD1a (DakoCytomation, Glostrup, Denmark), CD34, CD86, HLA-DR, IgG1 (BD Biosciences, Franklin Lakes, NJ). The following PE-conjugated mouse monoclonal antibodies were used: CD14 (DakoCytomation), CD54, CD80, IgG1 (BD Biosciences). Cell viability was determined using Propidium Iodide (BD Biosciences) staining. Samples were run on FACSCanto II instrument. Data was acquired using FACS Diva software (BD Biosciences) and analyzed using FCS Express V4 (De Novo Software, Los Angeles, CA). Gating was performed to exclude cell debris and non-viable cells based on forward- and side-scattering properties and quadrants established using isotype-controls. During chemical exposure, cells were seeded at 200.000 cells/ml in 24-well plates and exposed to chemical compound at the GARD input concentration. Stimulated cells were harvested after 24h incubation at 37 °C, 5% CO2 and RNA was isolated with TRIzol reagent (Life Technologies, Carlsbad, CA) using standardized protocols provided by the manufacturer. In parallel, a control of the maturity state of the cells was performed by flow cytometric analysis of CD86. Preparation of cDNA and hybridization, washing and scanning of the Human Gene 1.0 ST Arrays (Affymetrix, Santa Clara, CA, USA) was performed, according to standardized protocols provided by the manufacturer (Affymetrix).
Gene expression data obtained from the Human Gene 1.0 ST Arrays were normalized using the Single-Channel array normalization (SCAN) algorithm, and potential batch effects between different set of experiments were adjusted using the ComBat empirical bayes method. Normalizations and batch adjustments were performed in R statistical software using the open software Bioconductor v2.14 [73] with the additional software packages SCAN.UPC [70] and sva. Normalized data was imported into Qlucore Omics Explorer 3.0 (Qlucore AB, Lund, Sweden) and visualized using Principal Component Analysis (PCA). Predictors were selected from a one-way ANOVA p-value filtration, using false discovery rate (FDR) to adjust for multiple hypothesis testing, comparing respiratory sensitizers and non-respiratory sensitizers. […] The Backward Elimination algorithm was modified to minimize the Kullback-Leibler error [53] rather than maximizing the Area Under the Receiver Operating Characteristic (AUC ROC), in order to enable signature optimization in cases where the AUC ROC reaches 1.0. […] The script for Backwards Elimination was programmed in R, with the additional package e1071 [78]. The method by which the predictive genomic biomarker signature was established was validated using cross-validation based on Support Vector Machines (SVM), based on a linear kernel, as described previously. In short, the training dataset was randomly divided into a new cross-validation training dataset comprising 70% of the stimulations, and a cross-validation test dataset comprising 30% of the stimulations. In addition, care was taken to maintain the same proportion between respiratory sensitizers and non-respiratory sensitizers as in the complete training dataset. A new predictive genomic biomarker signature was identified from the cross-validation training dataset using one-way ANOVA p-value filtration as described above.

MUTZ-3 cells = test: Chemical cytotoxicity, concentration yielding 90% relative viability (Rv90), propidium iodide staining
Description: A panel of 32 reference chemicals comprising a selection of 10 well characterized respiratory sensitizers and 22 non-respiratory sensitizers, collectively termed the training dataset, were used for cell stimulations in order to establish the predictive genomic biomarker signature. […] Additionally, a panel of 25 chemicals, including 6 respiratory sensitizers and 19 non-respiratory sensitizers, collectively termed the independent test dataset, were used for cell stimulations in order to form an independent testset for validation of the identified predictive genomic biomarker signature. The […] comprised both control chemicals, included during the training of the model, as well as chemicals previously unseen during training of the model. […] All chemicals were purchased from Sigma-Aldrich (St. Louis, MO, USA). Chemicals were dissolved and diluted into GARD input concentration in either water or DMSO prior to stimulation of cells. For chemicals dissolved in DMSO, the in-well concentration of DMSO was 0.1%. Monitoring of chemical cytotoxicity and establishment of GARD input concentration for each chemical compound was performed as previously described. […] Toxic compounds were used at a concentration yielding 90% relative viability (Rv90). The criterion that was first met determined the GARD input concentration for each compound.
as §1

[2] = tested on: CD86 expression of MUTZ-3 cells; test: CD86 cell surface expression of MUTZ-3 cells following chemical stimulation, flow cytometry; format: cell-based, human; settings: 24 h stimulation at GARD input concentration; students t-test, p<0.05
[3] = Max solubility of chemicals in cell media (establishment of GARD input concentration); settings: for Max solubility: reference compounds of the training dataset, dissolved in vehicle (water or DMSO)
[4] = replicate stimulation 1, 24 h at GARD input concentration, independent test dataset, > 0 = respiratory sensitizer
[5] = replicate stimulation 2, 24 h at GARD input concentration, independent test dataset, > 0 = respiratory sensitizer
[6] = replicate stimulation 3, 24 h at GARD input concentration, independent test dataset, > 0 = respiratory sensitizer
[7] = respiratory sensitizer if any of replicate stimulations has SVM decision value > 0

Compound: O=[N+]([O-])c1ccc(Cl)c([N+](=O)[O-])c1 [2,4-dinitrochlorobenzene]
SVM decision value 1 [1, 4]: −1.66
SVM decision value 2 [1, 5]: −1.18
SVM decision value 3 [1, 6]: −1.90
Classification, Pos if 1 sample > 0 [1, 7]: Non-sensitizer
Rv90 (MUTZ-3 cells; human): 4 µM

Compound: Nc1ccccc1O [2-Aminophenol]
Rv90 (MUTZ-3 cells; human): 100 µM
Up-regulation of CD86 in comparison to unstimulated cells [2]: up-regulation of CD86 was also observed

Compound: O=C(O)c1ccc(O)cc1 [p-hydroxybenzoic acid]
SVM decision value 1 [1, 4]: −0.81
SVM decision value 2 [1, 5]: −0.56
SVM decision value 3 [1, 6]: −1.09
Classification, Pos if 1 sample > 0 [1, 7]: Non-sensitizer

Compound: O=C(O)c1ccccc1O [Salicylic acid]
SVM decision value 1 [1, 4]: −0.73
SVM decision value 2 [1, 5]: −1.08
SVM decision value 3 [1, 6]: −1.13
Classification, Pos if 1 sample > 0 [1, 7]: Non-sensitizer

solubility ([3]; aqueous buffer, kinetic from dmso stock): 150 µM (≈ 28.8 µg/mL)
Compound: O=C(O)c1ccc2c(c1)C(=O)OC2=O [Trimellitic anhydride]

Compound: CC(O)C(=O)O (stereo not shown) [Lactic acid]
SVM decision value 1 [1, 4]: −1.20
SVM decision value 2 [1, 5]: −0.81
SVM decision value 3 [1, 6]: −0.89

Compound: CCOC(=O)c1ccccc1C(=O)OCC [Diethyl phthalate]
SVM decision value 1 [1, 4]: −1.37
SVM decision value 2 [1, 5]: −0.96
SVM decision value 3 [1, 6]: −1.22
Classification, Pos if 1 sample > 0 [1, 7]: Non-sensitizer

Compound: CCCCCCCC(=O)O [Octanoic acid]
SVM decision value 1 [1, 4]: −0.65
SVM decision value 2 [1, 5]: −0.79
SVM decision value 3 [1, 6]: −1.22
Classification, Pos if 1 sample > 0 [1, 7]: Non-sensitizer

Compound: [Cl][Pt-2]([Cl])([Cl])([Cl])([Cl])[Cl].[NH4+].[NH4+] [Ammonium hexachloroplatinate]
Max solubility [3]: 35 µM
Up-regulation of CD86 in comparison to unstimulated cells [2]: statistically significant

Compound: Nc1ccc(N)cc1 [p-phenylenediamine]
SVM decision value 1 [1, 4]: −1.38
SVM decision value 2 [1, 5]: −1.19
SVM decision value 3 [1, 6]: −1.80
Classification, Pos if 1 sample > 0 [1, 7]: Non-sensitizer
Rv90 (MUTZ-3 cells): 75 µM

Compound: Cc1ccc(S(=O)(=O)NCl)cc1 [Chloramine T]
SVM decision value 1 [1, 4]: 0.52
SVM decision value 2 [1, 5]: 0.59
Classification, Pos if 1 sample > 0 [1, 7]: Sensitizer

Compound: O=C=Nc1ccc(Cc2ccc(N=C=O)cc2)cc1 [Methylene diphenol diisocyanate]
Max solubility [3]: 50 µM

Compound: Sc1nc2ccccc2s1 [2-mercaptobenzothiazole]
SVM decision value 1 [1, 4]: −0.44
SVM decision value 2 [1, 5]: −0.43
SVM decision value 3 [1, 6]: −0.57

Compound: OCC(O)CO [Glycerol]
SVM decision value 1 [1, 4]: −1.05
SVM decision value 2 [1, 5]: −1.11
SVM decision value 3 [1, 6]: −0.77
Classification, Pos if 1 sample > 0 [1, 7]: Non-sensitizer

Compound: Oc1ccccc1 [Phenol]
Classification, Pos if 1 sample > 0 [1]: Non-sensitizer
SVM decision value 1 ([1]; human): −1.04
SVM decision value 2 ([1]; human): −0.38
SVM decision value 3 ([1]; human): −0.95
